# Measured values as given in patent US10072044B2, “Modified kisspeptin peptides and uses thereof” (Yeda Research and Development Co. Ltd., priority 2012, dated 2018).
# Entries after “also recorded” stand apart in the source; their conditions may differ. Bridge positions count the residues as written; N and C are the ends. Ends that are not written are not given here.
# Columns and labels:
# mice [1] = experiment: Catalepsy (bar test); assay type: in vivo, mouse
# Procedure: Catalepsy is a state of immobility, and was measured by means of the bar test. The forepaws of the animal were placed on a bar (0.75 cm in diameter and 5 cm above the floor) and the latency until the mouse moved the forepaws off the bar was measured.
# mice [2] = experiment: Rotarod (forced activity); assay type: in vivo, mouse
# Procedure: Forced activity (Rotarod) was analyzed using the Rotarod apparatus (Jones and Roberts 7650, Ugo Basile, Italy). Animals were placed on an accelerating rod, and time required for each mouse to fall from the rod was recorded. Out of three trails, the longest time taken for an animal to fall from the rod was recorded and used for analysis.
# mice [3] = experiment: Open-field test (spontaneous activity); assay type: in vivo, mouse
# From the text: The open-field apparatus consisted of a white Plexiglas box (40×40×30 cm) with 16 squares (10×10 cm) painted on the floor (12 outer and 4 inner). Each mouse was placed in the center of the apparatus to initiate a 15-min test session. The number of entrances to the inner squares, time (min) spent in the inner squares, and total distance moved within the field (cm) were monitored.
# [4] = tested on: MK-801 treated C57BL/6J mice; experiment: PPI in the MK-801 drug-induced model of schizophrenia; assay type: in vivo, mouse
# Procedure: MK-801 (Sigma) was used at 0.1 mg/kg and administered 15 min prior to the PPI analysis.
# (§1) Acoustic startle response testing was performed within startle chambers purchased from Med Associates, Inc. (Med Associates, St. Albans, Vt., USA), as described in Cardon et al., 2010. During a period of acclimation, a 65-decibel (dB) background noise was presented for 5-min, and continued throughout the test session. All sessions for testing of acoustic startle response consisted of startle trials (pulse alone, 40-milliseconds (ms), 120-dB), prepulse trials (prepulse 20-ms, 69, 73, 78, or 81 dB followed by a [100-ms delay] pulse), and no-stimulus trials. All sessions were presented in pseudo-random order. The average time between trials was 15 seconds (range 12-30 seconds). Startle response was calculated from the reaction to the first pulse-alone trial.
# (§2) PPI was calculated as: % PPI=100−{[(startle response for prepulse+pulse)/(startle response for pulse-alone)]×100}. Reduced PPI indicates schizophrenia-related behavior.
# MK-801 (an antagonist of the N-methyl-D-aspartate (NMDA) receptor channel) acts as a psychomimetic agent, inducing psychotic symptoms that mimic the cognitive impairment and behavioral abnormalities associated with schizophrenia.
# The neurotransmitter imbalance induced by MK-801 causes PPI dysfunction, one of the characteristic features of patients with schizophrenia. In an experiment depicted in FIG. 2, C57BL/6J mice were injected with Kp-10 (13 μg/mouse, light gray bars), or with Peptides 6 (8.75 μg/mouse, medium gray bars) or 8 (8.75 μg/mouse, dark gray bars) dissolved in DMSO and then diluted in PBS to a final concentration of 0.2% (w/v) DMSO; the control group received 0.2% DMSO in PBS (black bars). After 15 min, MK-801 (0.1 mg/kg) was injected; 15 min later, measurement of the PPI was performed.
# mice [5] = experiment: Sedative effect (sedative score); conditions: data not shown
# Procedure: Sedative effect was evaluated by observing the mice and scoring their sedative state as follows: 0, spontaneous movement; 1, mild intermittent spontaneous movement; 2, severe intermittent spontaneous movement; 3, no spontaneous movement; 4, loss of auditory reflex; 5, loss of corneal reflex; 6, loss of response to tail pinch.
# Sedative effect was evaluated by observing the animal using a sedative score.
# [6] = Plasma stability (HPLC, Cerep); assay type: in vitro ADME; conditions: 1 μM in human plasma
# Procedure: 1 μM Peptide 6 was dissolved in human plasma, and peptide concentration was analyzed by HPLC after 0, 0.5, 1, 1.5, 2 h of incubation. The assay was performed by Cerep, Inc (Redmond, Wash., U.S.A).
# C57Bl/6J naïve mice = experiment: Acoustic startle response / prepulse inhibition (PPI) in naïve mice; assay type: in vivo, mouse; conditions: 30 min before test, prepulse 69, 73, 78 or 81 dB
# Procedure: as §1, §2
# To test Peptide 2 (SEQ ID NO: 10), the peptide was dissolved in DMSO and then diluted in PBS to a final concentration of 1% (w/v) DMSO. Male C57Bl/6J naïve mice were injected intraperitoneally with 15 μg of the peptide or with 1% DMSO in PBS (control). Prepulse intensity analysis was performed after 30 minutes at 69, 73, 78 or 81 decibels. […]
# several mouse models = conditions: Kp-10, WO 2010/137022; cited from earlier work
# [7] = Kp-10, after 60 min (Chan et al., 2011); cited from earlier work
# [8] = tested on: SCID mice that have impaired PPI response and several schizophrenia mouse models; conditions: Kp-10 administration, WO 2010/137022; cited from earlier work
# naïve mice = conditions: Kp-10, WO 2010/137022 (FIG. 10C); dose equivalent to 0.29 mg/kg Peptide 6; cited from earlier work
# BDNF mRNA = conditions: hippocampal slices (Arai et al., 2009); cited from earlier work
# [9] = 13 μg/mouse, MK-801 0.1 mg/kg after 15 min, PPI 15 min later
compound,measurement,setting,value
O=C(CCCN1CCC(O)(c2ccc(Cl)cc2)CC1)c1ccc(F)cc1 [Haloperidol],catalepsy effect,mice [1]; 1 mg/kg i.p.,had catalepsy effects
same,forced activity in the Rotarod,mice [2]; 1 mg/kg i.p.,reduced mice activity
same,spontaneous activity in the open field,mice [3]; 1 mg/kg i.p.,reduced mice activity
C[C@]12N[C@H](Cc3ccccc31)c1ccccc12 [MK-801],PPI response compared to PBS injected control,"[4]; MK-801 alone 0.1 mg/kg, 15 min before PPI",the PPI response was reduced compared to the PBS injected control
Cc1cc2c(s1)Nc1ccccc1N=C2N1CCN(C)CC1 [Olanzapine],highest dose that can be injected without causing sedative effects (chosen dose),mice [5],0.375 mg/kg
"CC(C)C[C@@H]1NC(=O)CNC(=O)[C@H](Cc2ccccc2)NC(=O)[C@@H](N)Cc2ccc(cc2)N=Nc2cc(ccc2O)C[C@@H](C(N)=O)NC(=O)[C@H](Cc2c[nH]c3ccccc23)NC(=O)[C@H](CCCNC(=N)N)NC1=O [Peptide 6, Pap-Phe-Gly-Leu-Arg-Trp-Tyr-NH2]",catalepsy effect,mice [1]; 0.29 and 2.9 mg/kg i.p.,did not have catalepsy effect at either dosage tested
same,% Mean Compound Remaining,[6]; incubation time 0 minutes,100.0%
same,"remaining at 0.5 h, 1 μM","[6]; incubation time 30 minutes, read-out: % Mean Compound Remaining",119%
same,% Mean Compound Remaining,[6]; incubation time 60 minutes,94%
same,"remaining at 1 h, 1 μM","[6]; incubation time 60 minutes, read-out: % Mean Compound Remaining",93.7%
same,"remaining at 1.5 h, 1 μM","[6]; incubation time 90 minutes, read-out: % Mean Compound Remaining",97.2%
same,"remaining at 2 h, 1 μM","[6]; incubation time 120 minutes, read-out: % Mean Compound Remaining",71.8%
same,half-life,[6]; read-out: calculated half-life,> 2 h
same,forced activity in the Rotarod,mice [2]; 0.29 and 2.9 mg/kg i.p.,did not affect activity level
same,spontaneous activity in the open field,mice [3]; 0.29 and 2.9 mg/kg i.p.,did not affect activity level
Cc1nc2n(c(=O)c1CCN1CCC(c3noc4cc(F)ccc34)CC1)CCCC2 [Risperidone],PPI in MK-801 treated mice,[4]; 0.1 mg/kg i.p. with MK-801 (FIG. 4B),elevated PPI in the MK-801 treated mice
same,highest dose that can be injected without causing sedative effects (chosen dose),mice [5],0.1 mg/kg
"Peptide 2: cystine (S—S) cyclic modified Kp-10 derived peptide, used for comparison only (CYNWNSFGLRFC-NH2; disulfide 1-12; N-terminus assumed; SMILES CC(C)C[C@@H]1NC(=O)CNC(=O)[C@H](Cc2ccccc2)NC(=O)[C@H](CO)NC(=O)[C@H](CC(N)=O)NC(=O)[C@H](Cc2c[nH]c3ccccc23)NC(=O)[C@H](CC(N)=O)NC(=O)[C@H](Cc2ccc(O)cc2)NC(=O)[C@@H](N)CSSC[C@@H](C(N)=O)NC(=O)[C@H](Cc2ccccc2)NC(=O)[C@H](CCCNC(=N)N)NC1=O)",% PPI relative to controls,C57Bl/6J naïve mice; 15 μg peptide i.p. in 1% DMSO in PBS,"slightly improved the % PPI relative to controls, however, the effect was not significant; also recorded: did not significantly improve the PPI response"
"Peptide 5: cystine (S—S) cyclic modified Kp-10 derived peptide, used for comparison only (CFGLRWC-NH2; disulfide 1-7; N-terminus assumed; SMILES CC(C)C[C@@H]1NC(=O)CNC(=O)[C@H](Cc2ccccc2)NC(=O)[C@@H](N)CSSC[C@@H](C(N)=O)NC(=O)[C@H](Cc2c[nH]c3ccccc23)NC(=O)[C@H](CCCNC(=N)N)NC1=O)",% PPI relative to controls,C57Bl/6J naïve mice; 8.3 μg peptide i.p. in 1% DMSO in PBS,"slightly improved the % PPI at 73, 78 and 81 decibels relative to controls, however, the effect was not significant; also recorded: did not significantly improve the PPI response"
YNWNSFGLRF-NH2 [Kp-10],PPI compared to MK-801 treated animals,[4]; [9],significantly improved PPI compared to the MK-801 treated animals; also recorded: significantly improved PPI compared to animals treated only with MK-801
same,PPI compared to control without MK-801 (restoration to normal),[4]; [9],improved PPI after MK-801 administration but did not abolish its affect
same,spatial learning and memory in a water maze,several mouse models,improves spatial learning and memory in a water maze
same,level after 60 min,[7],below detectable level
same,PPI response levels,[8],improved PPI response levels
same,antidepressant effect / total immobility in tail suspension test,naïve mice,antidepressant effect; also recorded: potential anti-depressive activity; also recorded: reduced the total immobility
same,BDNF mRNA levels,BDNF mRNA,elevate BDNF mRNA levels
